One assay concerns IL-2. In words: IL-2 assay: supernatants of Con A stimulated lymphocytes of treated mice, proliferation of indicator cells. As to conditions: mice treated with 100 mg/kg, Con A for 2 days; for IL-2 ASSAY CPM, % Supernatants Tested 5: 5 % supernatant; for IL-2 ASSAY CPM, % Supernatants Tested 10: 10 % supernatant; for IL-2 ASSAY CPM, % Supernatants Tested 20: 20 % supernatant. The assay is classed as in vivo. On the procedure:
Spleens were removed from mice and single-cell suspensions were prepared by teasing the spleens apart and rinsing through No. 40 and No. 80 stainless steel mesh screens. Erythrocytes were lysed by a 3- minute exposure to a 0.83% Tris-ammonium chloride solution. Cells were washed 3 times with HBSS and finally suspended in complete RPMI 1640 culture medium consisting of 5% FCS, 2mM L-glutamine, 5 x 10^-5M 2-mercaptoethanol, 10mM HEPES, 100 U/ml of penicillin, and 100 µg/ml of streptomycin. Cells were counted in a hemocytometer and the viability of test cells was always greater than 98% as judged by trypan blue dye exclusion.
IL-2 was made by stimulating 10^7 B6 splenocytes with 1 µg Con A in 1 ml medium. Supernatants were harvested 2 days later and residual Con A was removed by Sephadex G-50 absorption or a-methyl mannoside inactivation. IL-2 activity was tested in the thymocyte proliferation assay described above. Additionally, test samples were added to cultures of lymphoblasts prepared by a three-day Con A stimulation or to IL-2 dependent CT11-2 cells. The proliferation of these indicator cells was measured 24 hours later by ^3HTdR incorporation.
Lymphocytes prepared from normal mice or mice treated with 100 mg/kg of test compound were stimulated with Con A for 2 days. Culture supernatants were harvested and tested for putative IL-2 activity in 3 proliferation assays using thymocytes, lymphoblasts and CTLL-2 cells as indicators. Although supernatants from normal lymphocytes supported the growth of all indicator cells, lymphocytes from treated animals apparently produced more IL-2 as indicated by a greater degree of cell proliferation in all three test systems.

For the next assay, the system named is IL-1. In words: IL-1 assay: supernatants of peritoneal exudate cells of orally treated mice, tested on thymocytes. The assay is classed as in vivo, C57BI/6 mice. Conditions: oral dose 25, 100 or 200 mg/Kg (not stated which), PEC collected four days later, 3H-TdR in thymocytes; for IL-1 ASSAY + LPS: with Lipopolysaccharide (10 μg/ml); for IL-1 ASSAY - LPS: without Lipopolysaccharide. Here is the method:
Groups of C57BI/6 mice were treated orally with immunomodulator at doses of 25, 100 or 200 mg/Kg. Four days later peritoneal exudate cells (PEC) were collected and 1 x 10^5 cells were plated in RPMI-1640 medium containing 5% fetal calf serum (FCS). After 2 hours incubation at 37°C the non-adherent cells were washed off and the adherent cells were incubated for 24 hours in RPMI medium with 5% FCS with or without Lipopolysaccharide (10 u.g/ml). The following day the supernatants were collected and assayed for IL-1 on thymocytes. The cultures were incubated for 3 days and then pulsed with ^3H-TdR using 0.5 µCi/well. The cells were harvested and the number of counts per minute (CPM) was determined using a Beckman scintillation counter.

In the next assay the test system is SRBC. In words: Anti-SRBC antibody assay (antibody forming cells, plaques). The assay is classed as in vivo, mice. Conditions: oral, day 0, 200 or 600 mg/kg, SRBC IP day +4; for Production of Anti-SRBC Antibody, CPM Test No. 1: control 1,260; for Production of Anti-SRBC Antibody, CPM Test No. 2: control 830. On the procedure:
Compounds were given orally on day 0 at doses of 200 or 600 mg/kg. 0.1 ml of a 10% suspension of sheep RBC (Red Blood Cell) was given IP on day +4. Ten days later splenocytes were obtained from these mice and either 4 x 10^6 ot 2 x 10^6 splenocytes in 50 µl were mixed with 50 µl of a 15% suspension of SRBC containing guinea pig complement (1:4 dilution). 100 ul of this mixture was placed onto a slide culture and incubated for 30 to 45 minutes at 37°C. The number of antibody forming cells was determined by counting the number of visible plaques formed.

The subject of assay [1] is colony stimulating factor (CSF). In words: Colony stimulating factor production: mouse sera tested on normal bone marrow cells. The assay is classed as in vivo, mice. Conditions: 10% test serum on normal marrow cells, 3 days, 3HTdR; for Production of Colony Stimulating Factor, CPM Test No. 2: control 3,118; for Production of Colony Stimulating Factor, CPM Test No. 1: control 548. Here is the method:
Mouse femurs were removed and the marrow cells collected by aspiration through a 23 gauge needle and dispensed into 5 ml of RPMI 1640 culture medium. Aliquots were diluted with a 2% solution of acetic acid containing 0.2% crystal violet and the number of nucleated cells per femur was determined by direct count in a hemocytometer.
Mouse sera were assayed for colony stimulating factor (CSF) in cultures of normal bone marrow cells. CSF was tested in a system in which 5 x 10" normal marrow cells were incubated with 10% test samples in each well of 96-well culture plates for 3 days. Proliferation of these cells was determined by ^3HTdR incorporation.

Another assay concerns P815 tumor cells. In words: Macrophage mediated tumor cytostasis (activation of tumoricidal macrophages in compound-treated mice). The assay is classed as in vivo. Conditions: macrophages from compound-treated mice vs normal control macrophages; 3HTdR incorporation into P815 cells; single oral dose, day 4. From the text:
The test compounds apparently were able to activate these cells in vivo to inhibit the growth of tumor cells in cultures. These "activated" macrophages were detectable in peritoneal exudates of treated mice on day 4 after receiving a single oral dose of the test compound. (Table I). […] (Tables II and III). […] (Table V). Mice treated with the test compounds also respond better to foreign antigens such as sheep red blood cells (SRBC) as shown by their ability to produce higher levels of antibody to this foreign protein. (Table IV). […]
P815 tumor cells obtained from D2 mice were washed twice with HBSS and suspended in 10% FCS- complete medium. Five x 10^3 P815 cells were added to culture wells containing B6 macrophages and the E:T ratios were determined by the numbers of PE cells added initially to each well. […] The amount of ^3HTdR incorporated into target cells was determined in a liquid scintillation counter. The mean cpm were obtained from triplicate cultures with results being presented as percent cytostasis calculated by the fol lowing formula: % cytostasis = (A-B)/A x 100 where A = cpm of cultures containing normal control macrophages; and B = cpm of cultures containing experimental macrophages obtained from compound-treated mice.

These results are taken from EP0342433A2, “Substituted dibenzothiaphenes” (AMERICAN CYANAMID COMPANY, priority 1988, dated 1989).

SMILES strings stand for the structures.

In the case of `CCC(=Nc1ccc2c(c1)S(=O)(=O)c1cc(N=C(CC)N(C)C)ccc1-2)N(C)C` [N , N"-3,7-Dibenzothiophenediylbis[N,N-dimethylpropanimidamide] S,S-dioxide], in the assay with IL-2, the “IL-2 ASSAY CPM, % Supernatants Tested 5” value is reported as 3,238 CPM; the “IL-2 ASSAY CPM, % Supernatants Tested 10” value is recorded as 9,050 CPM; the “IL-2 ASSAY CPM, % Supernatants Tested 20” value is recorded as 14,568 CPM. Besides, in the assay with IL-1, the “IL-1 ASSAY + LPS” value is reported as 56,015 CPM and the “IL-1 ASSAY - LPS” value is 31,260 CPM. The “Production of Anti-SRBC Antibody, CPM Test No. 1” value in the assay with SRBC was 1,437 CPM. For the same compound, the “Production of Colony Stimulating Factor, CPM Test No. 2” value in assay [1] is 6,650 CPM.
For the compound `CCC(=Nc1ccc2c(c1)S(=O)(=O)c1cc(F)ccc1-2)N(C)C` [N'-(7-Fluoro-3-dibenzothienyl)N,N-dimethylpropanimidamide S,S-dioxide], the “Production of Anti-SRBC Antibody, CPM Test No. 2” value in the assay with SRBC is 1,474 CPM. Besides, in assay [1], the “Production of Colony Stimulating Factor, CPM Test No. 1” value is 1,353 CPM. Moreover, the “% Cytostasis” value in the assay on P815 tumor cells was 77.4%.
For the compound `CCC(=Nc1ccc2c(c1)-c1cc(N=C(CC)N(C)C)ccc1S2(=O)=O)N(C)C` [N,N'"-2,8-Dibenzothiophenediyibis[N,N-dimethyipropanimidamide] S,S-dioxide], in the assay on IL-2, the “IL-2 ASSAY CPM, % Supernatants Tested 5” value is 2,766 CPM; the “IL-2 ASSAY CPM, % Supernatants Tested 10” value was 6,457 CPM; the “IL-2 ASSAY CPM, % Supernatants Tested 20” value is reported as 11,288 CPM. In the assay with IL-1, the “IL-1 ASSAY + LPS” value was 44,983 CPM and the “IL-1 ASSAY - LPS” value is reported as 52,160 CPM. Further, the “Production of Anti-SRBC Antibody, CPM Test No. 1” value in the assay with SRBC is recorded as 1,029 CPM. Moreover, the “Production of Colony Stimulating Factor, CPM Test No. 2” value in assay [1] was 6,513 CPM.
For the compound `CC(=O)Nc1ccc2c(c1)S(=O)(=O)c1cc(F)ccc1-2` [N-(7-Fluoro-3-dibenzothienyl)acetamide S,S-dioxide], in the assay with IL-2, the “IL-2 ASSAY CPM, % Supernatants Tested 5” value is 2,849 CPM; the “IL-2 ASSAY CPM, % Supernatants Tested 10” value is 5,653 CPM; the “IL-2 ASSAY CPM, % Supernatants Tested 20” value is recorded as 10,982 CPM. Besides, in the assay on IL-1, the “IL-1 ASSAY + LPS” value is reported as 36,320 CPM and the “IL-1 ASSAY - LPS” value is on record as 50,677 CPM. In the assay with SRBC, the “Production of Anti-SRBC Antibody, CPM Test No. 2” value was 1,469 CPM. Besides, the “Production of Colony Stimulating Factor, CPM Test No. 1” value in assay [1] is given as 976 CPM. Also, the “% Cytostasis” value in the assay with P815 tumor cells amounted to 13.9%.
